# Measured values from patent US20090297508A1, “Compositions and methods for treating hemostasis disorders associated with clec-2 signal transduction” (UNIVERSITY OF YAMANASHI, priority 2005, published 2009).
# Tests used:
# [1] = test system: platelets; assay: Whole cell tyrosine phosphorylation and functional responses of platelets stimulated by rhodocytin; assay type: cell-based; conditions: data not shown
# [2] = test system: Syk, Btk, LAT, SLP-76, Vav1, Vav3, PLCγ2; assay: Tyrosine phosphorylation of signaling proteins of the GPVI cascade in platelets; assay type: cell-based, human; conditions: PP2 present; not shown
# [3] = test system: CLEC-2; assay: Precipitation of CLEC-2 from platelet lysates by GST fusion protein of tandem Syk SH2 domains; assay type: cell-based, human; conditions: 30 μM PP2 pretreatment, 50 nM rhodocytin
# Procedure: (A) Washed murine platelets were stimulated with 50 nM rhodocytin for the indicated times. Whole cell lysates or immunoprecipitates with antibodies against PLCγ2, Vav1, or Vav3 were separated by SDS-PAGE and western blotted with the indicated antibodies. (B) Control or Syk-deficient platelets were stimulated with 30 nM rhodocytin and platelet aggregation was monitored using an aggregometer. (C) (i)(ii) Washed human platelets, pretreated with or without 30 μM PP2, were stimulated with 50 nM rhodocytin or 10 μg/ml of convulxin for the indicated times. Reactions were terminated by addition of an equal volume of 2× lysis buffer. […] The resultant supernatant was incubated with 40 μl of glutathione beads associated with GST fusion protein containing tandem Syk SH2 domains. Precipitated proteins were separated by SDS-PAGE and western blotted with an antibody to CLEC-2. (iii) CLEC-2 associated with 10 μg of CLEC-2 phospho-YXXL-containing peptide plus avidin-sepharose was detected by CLEC-2 antibody. The data are representative of 2-5 experiments.
# [4] = test system: CLEC-2; assay: CLEC-2 tyrosine phosphorylation in human platelets (immunoprecipitation and western blotting); assay type: cell-based; conditions: for block of rhodocytin-induced tyrosine phosphorylation of CLEC-2: 30 μM inhibitor pretreatment, 50 nM rhodocytin; for tyrosine phosphorylation of CLEC-2: 50 μg/ml collagen or 100 μM SFLLRN, time course of up to 5 min
# Procedure: (§1) Washed human platelets (1×10^9/ml) pretreated with 1 mM GRGDS (SEQ ID NO: 5) peptide or washed murine platelets (2×10^8/ml) pretreated with 10 μM lotrafiban to inhibit platelet aggregation were stimulated with 50 nM rhodocytin, 100 μM SFLLRN (SEQ ID NO: 6), or 50 μg/ml of collagen. […] Reactions were terminated by addition of 2× ice-cold lysis buffer. Platelet lysates were precleared and detergent-insoluble debris was clarified as described 17. A small aliquot was dissolved with SDS sample buffer for detection of total tyrosine phosphorylation. Antibodies against CLEC-2, PLCγ2, Syk, Btk, SLP-76, LAT, Vav1, or Vav3 were added to the resultant supernatant and incubated overnight. Where indicated, 10 μg of CLEC-2 YXXL-containing peptide plus avidin-Sepharose or GST-fusion protein-associated glutathione Sepharose were incubated with the lysates. […] The samples were lysed with 2× lysis buffer before and 5 min after stimulation. […] After removing insoluble debris by centrifugation, CLEC-2 was immunoprecipitated by addition of protein G. Precipitated proteins or whole cell lysates were separated by SDS-PAGE, electrotransferred, and western blotted by the indicated antibodies.
# [5] = biological target: Syk (Homo sapiens, UniProt P43405); conditions: 10 μg peptide plus avidin-Sepharose, platelet lysates
# Procedure: as §1
molecule,measurement,setting,value
Cc1ccc(-c2nn(C(C)(C)C)c3ncnc(N)c23)cc1 [PP1],block of tyrosine phosphorylation in whole cells and functional responses to rhodocytin,[1],block tyrosine phosphorylation in whole cells and all functional responses
CC(C)(C)n1nc(-c2ccc(Cl)cc2)c2c(N)ncnc21 [PP2],"effect on rhodocytin-induced tyrosine phosphorylation of Syk, Btk, LAT, SLP-76, Vav1, Vav3, PLCγ2",[2],abolished
same,block of tyrosine phosphorylation in whole cells and functional responses to rhodocytin,[1],block tyrosine phosphorylation in whole cells and all functional responses
same,effect on precipitation of CLEC-2 by Syk fusion protein from rhodocytin-stimulated platelets,[3],abolished
same,block of rhodocytin-induced tyrosine phosphorylation of CLEC-2,[4],block tyrosine phosphorylation of both the 32 and 40 kDa forms of CLEC-2
Nc1ncnc2c1cnn2-c1ccccc1 [PP3],block of rhodocytin-induced tyrosine phosphorylation of CLEC-2,[4],not
Biotin-6-aminohexanoic acid (Ahx)-MQDEDGY(PO3H2)ITLNIK-OH,interaction of Syk with CLEC-2 YXXL peptide,[5],Syk could be precipitated
Biotin-6-aminohexanoic acid (Ahx)-MQDEDGYITLNIK-OH [non-phosphorylated peptide],interaction of Syk with CLEC-2 YXXL peptide,[5],no interaction
Ser-Phe-Leu-Leu-Arg-Asn (SFLLRN),tyrosine phosphorylation of CLEC-2,[4],does not undergo tyrosine phosphorylation
collagen,tyrosine phosphorylation of CLEC-2,[4],does not undergo tyrosine phosphorylation
